{"source": "patent US10478157B2", "about": "“Methods for drug delivery” (Presage Biosciences, Inc., priority 2011, dated 2019)", "test_system": "mouse xenograft of Human Lymphoma Ramos cell line", "test": "Vincristine delivered through a microdialysis probe into a solid tumor; Cleaved Caspase 3 / DAPI staining", "assay_type": "in vivo", "conditions": "intratumoral delivery by microdialysis probe; Cleaved Caspase 3 Fluorophore 555 for cell death, DAPI nuclear stain; FIG. 13", "excerpt": "FIGS. 13a and 13b show drug delivered through microdialysis probe induces spatially restricted drug specific tumor cell death embodying principles of the present invention.\nLittle or no evidence of tissue disruption due to insertion was observed. The membrane maintained its integrity through insertion and tissue processing, including microtome sectioning. The solid tumor is a mouse xenograft of Human Lymphoma Ramos cell line. The biomarkers are DAPI for nuclear stain and Cleaved Caspase 3 Fluorophore 555 for cell death in response to Vincristine as delivery agent."}
{"smiles": "CC[C@]1(O)C[C@H]2CN(CCc3c([nH]c4ccccc34)[C@@](C(=O)OC)(c3cc4c(cc3OC)N(C=O)[C@H]3[C@@](O)(C(=O)OC)[C@H](OC(C)=O)[C@]5(CC)C=CCN6CC[C@]43[C@@H]65)C2)C1", "note": "[Vincristine]", "values": [{"measurement": "triggered cellular response (Cleaved Caspase 3 biomarker for cell death) around the delivery axis", "value": "clear manifestation of triggered cellular response"}]}
